# Assay results published in patent publication US12637472B2, “Benzimidazole heteroatom-containing spiro compound and medicinal use thereof” (Changzhi University, priority 2023, dated 2026).
# Read-outs that look alike come from different tables or passages of the source.
# Legend:
# Format in all cases: cell-based
# [1] = system: human colon cancer cells HCT116; assay: MTT in vitro cell proliferation inhibition experiment, HCT116; conditions: 48 h contact between compound and cell, read-out: Antiproliferative activity (IC50, μM) HCT116
# Description: (§1) Human liver tumor cells HepG2, human colon cancer cells HCT116, and human gastric adenocarcinoma cells AGS were purchased from the Institute of Basic Medical Sciences, Chinese Academy of Medical Sciences. The cells each were preserved and passaged in the laboratory of the present disclosure according to respective cultivation data. Each cell line was routinely inoculated in a 50 mL cell culture flask, and cultivated with a 10% fetal bovine serum-containing DMEM/IRP-1640 medium at 37° C., 5% CO2, and 100% humidity, where the medium was changed daily. When growing to a confluency of 80% to 90%, cells were digested with a mixture of trypsin and EDTA and passaged according to 1:3.
# (§2) An in vitro cell activity and proliferation inhibition experiment was conducted by an MTT method to investigate an impact of a target compound on a survival activity of each cell. Cells at a logarithmic growth phase were inoculated at 5×10^3 cells (100 μL)/well in a 96-well culture plate and cultivated for 24 h, and then compound solutions with different concentrations prepared in advance were added (100 μL) to the plate. At least 3 replicate wells were set for each concentration. A solvent control group without a compound and a blank control group without a cell were set. Edge wells each were filled with 200 μL of sterilized water. […] A liquid in each well was completely removed carefully, 150 μL of DMSO was added to each well, the plate was gently shaken on a microshaker for 10 min to make a purple crystal fully dissolved, and then an absorbance value was determined at 570 nm by a microplate reader. With a cell viability of the solvent control group without a compound as 100%, a cell survival rate was calculated as follows: a cell survival rate=(an absorbance value of a compound group−an absorbance value of the blank control group)/(an absorbance value of the control group−an absorbance value of the blank control group)×100%. A half-maximal inhibitory concentration (IC50) of a compound for a cell was calculated by the Graphpad Prism 5 software.
# [2] = system: Human liver tumor cells HepG2; assay: MTT in vitro cell proliferation inhibition experiment, HepG2; conditions: MTT method, 48 h contact between compound and cell, read-out: Antiproliferative activity (IC50, μM) HepG2
# Description: as §1, §2
# [3] = system: human gastric adenocarcinoma cells AGS; assay: MTT in vitro cell proliferation inhibition experiment, AGS; conditions: MTT method, 48 h contact between compound and cell, read-out: Antiproliferative activity (IC50, μM) AGS
# Description: as §1, §2
# [4] = Homo sapiens, HCT-116, MTT method
SMILES,"IC50 [1, 4] [µM]",IC50 ([2]; Homo sapiens) [µM],IC50 ([3]; Homo sapiens) [µM],IC50 ([1]; MTT method) [µM],IC50 [2] [µM],IC50 [3] [µM]
"CCC(C)C1NC2(C(=O)c3ccccc3C2=O)C(C(=O)c2nc3ccccc3[nH]2)C1c1ccc(C)cc1 (stereo not drawn) [Compound 20, 3-(1H-benzimidazol-2-carbonyl)-5-sec-butyl-4-p-tolylspiro[inden-2,2′-pyrrolidine]-1,3-dione]",51.3,> 100,94,,,
"CCC(C)C1NC2(C(=O)c3ccccc3C2=O)C(C(=O)c2nc3ccccc3[nH]2)C1C1CCCCC1 (stereo not drawn) [Compound 17, 3-(1H-benzimidazol-2-carbonyl)-5-sec-butyl-4-cyclohexylspiro[inden-2,2′-pyrrolidine]-1,3-dione]",11.1,16.2,14.7,,,
"CSCCC1NC2(C(=O)c3ccccc3C2=O)C(C(=O)c2nc3ccccc3[nH]2)C1c1ccc(Cl)c(F)c1 (stereo not drawn) [Compound 34, 3-(1H-benzimidazol-2-carbonyl)-4-(4-chloro-3-fluorophenyl)-5-(2-methylthio)ethylspiro[inden-2,2′-pyrrolidine]-1,3-dione]",44.7,36.6,39.7,,,
"CC(C)C1NC2(C(=O)c3ccccc3C2=O)C(C(=O)c2nc3ccccc3[nH]2)C1c1ccc(Cl)c(F)c1 (stereo not drawn) [Compound 26, 3-(1H-benzimidazol-2-carbonyl)-4-(3-fluoro-4-chlorophenyl)-5-isopropylspiro[inden-2,2′-pyrrolidine]-1,3-dione]",79,> 100,60,,,
"CC(C)C1NC2(C(=O)c3ccccc3C2=O)C(C(=O)c2nc3ccccc3[nH]2)C1C1CCCCC1 (stereo not drawn) [Compound 25, 3-(1H-benzimidazol-2-carbonyl)-4-cyclohexyl-5-isopropylspiro[inden-2,2′-pyrrolidine]-1,3-dione]",5.67,9.67,12.4,,,
"CC(C)CC1NC2(C(=O)c3ccccc3C2=O)C(C(=O)c2nc3ccccc3[nH]2)C1c1ccc(Br)cc1 (stereo not drawn) [Compound 16, 3-(1H-benzimidazol-2-carbonyl)-4-(4-bromophenyl)-5-isobutylspiro[inden-2,2′-pyrrolidine]-1,3-dione]",10.8,49.7,20.9,,,
"O=C(c1nc2ccccc2[nH]1)C1C(C2CCCCC2)C(c2c[nH]c3ccccc23)NC12C(=O)c1ccccc1C2=O (stereo not drawn) [Compound 41, 3-(1H-benzimidazol-2-carbonyl)-4-cyclohexyl-5-(1H-indol-3-yl)spiro[inden-2,2′-pyrrolidine]-1,3-dione]",77.4,89.6,82.3,,,
"O=C(c1nc2ccccc2[nH]1)C1C(c2cccc(Br)c2)C2CCCN2C12C(=O)c1ccccc1C2=O (stereo not drawn) [Compound 6, 2-(1H-benzimidazol-2-carbonyl)-1-3-bromophenyl-1,2,5,6,7,7a-hexahydrospiroinden-2,3-pyrrolizine-1,3-dione]",6.64,11.7,4,,,
"CCOc1ccc(C2C(CCSC)NC3(C(=O)c4ccccc4C3=O)C2C(=O)c2nc3ccccc3[nH]2)cc1OCC (stereo not drawn) [Compound 37, 3-(1H-benzimidazol-2-carbonyl)-3,4-diethoxyphenyl-5-(2-methylthio)ethylspiro[inden-2,2′-pyrrolidine]-1,3-dione]",> 100,> 100,78.6,,,
"CC(C)CC1NC2(C(=O)c3ccccc3C2=O)C(C(=O)c2nc3ccccc3[nH]2)C1c1cccc(Br)c1 (stereo not drawn) [Compound 14, 3-(1H-benzimidazol-2-carbonyl)-4-(3-bromophenyl)-5-isobutylspiro[inden-2,2′-pyrrolidine]-1,3-dione]",5.88,11.7,7.92,,,
"CCOc1ccc(C2C(C(C)C)NC3(C(=O)c4ccccc4C3=O)C2C(=O)c2nc3ccccc3[nH]2)cc1 (stereo not drawn) [Compound 31, 3-(1H-benzimidazol-2-carbonyl)-4-(4-ethoxyphenyl)-5-isopropylspiro[inden-2,2′-pyrrolidine]-1,3-dione]",56.4,44.6,59.9,,,
CCOc1ccc(C2C(C(C)CC)NC3(C(=O)c4ccccc4C3=O)C2C(=O)c2nc3ccccc3[nH]2)cc1OCC (stereo not drawn) [Compound 21],35.5,41.3,33.8,,,
"Cc1ccc(C2C(c3c[nH]c4ccccc34)NC3(C(=O)c4ccccc4C3=O)C2C(=O)c2nc3ccccc3[nH]2)cc1 (stereo not drawn) [Compound 44, 3-(1H-benzimidazol-2-carbonyl)-5-(1H-indol-3-yl)-4-p-tolylspiro[inden-2,2′-pyrrolidine]-1,3-dione]",5.34,5.67,6.02,,,
"N.N.[Cl][Pt][Cl] [Cisplatin, reference compound]",,,,39.1,43.2,46
"CSCCC1NC2(C(=O)c3ccccc3C2=O)C(C(=O)c2nc3ccccc3[nH]2)C1c1cccc(Br)c1 (stereo not drawn) [Compound 38, 3-(1H-benzimidazol-2-carbonyl)-4-(3-bromophenyl)-5-(2-methylthio)ethylspiro[inden-2,2′-pyrrolidine]-1,3-dione]",47.4,49.8,40.9,,,
"CC(C)CC1NC2(C(=O)c3ccccc3C2=O)C(C(=O)c2nc3ccccc3[nH]2)C1c1ccc(Cl)c(F)c1 (stereo not drawn) [Compound 10, 3-(1H-benzimidazol-2-carbonyl)-4-(3-fluoro-4-chlorophenyl)-5-isobutylspiro[inden-2,2′-pyrrolidine]-1,3-dione]",15.7,87.7,46.7,,,
"CCC(C)C1NC2(C(=O)c3ccccc3C2=O)C(C(=O)c2nc3ccccc3[nH]2)C1c1ccc(Cl)c(F)c1 (stereo not drawn) [Compound 18, 3-(1H-benzimidazol-2-carbonyl)-5-sec-butyl-4-(3-fluoro-4-chlorophenyl)spiro[inden-2,2′-pyrrolidine]-1,3-dione]",> 100,> 100,> 100,,,
"Cc1ccc(C2C3CCCN3C3(C(=O)c4ccccc4C3=O)C2C(=O)c2nc3ccccc3[nH]2)cc1 (stereo not drawn) [Compound 4, 2-(1H-benzimidazol-2-carbonyl)-1-p-tolyl-1,2,5,6,7,7a-hexahydrospiroinden-2,3-pyrrolizine-1,3-dione]",54.2,> 100,17.1,,,
CCOc1ccc(C2C(CC(C)C)NC3(C(=O)c4ccccc4C3=O)C2C(=O)c2nc3ccccc3[nH]2)cc1OCC (stereo not drawn) [Compound 13],> 100,> 100,> 100,,,
"CCOc1ccc(C2C(C(C)C)NC3(C(=O)c4ccccc4C3=O)C2C(=O)c2nc3ccccc3[nH]2)cc1OCC (stereo not drawn) [Compound 29, 3-(1H-benzimidazol-2-carbonyl)-3,4-diethoxyphenyl-5-isopropylspiro[inden-2,2′-pyrrolidine]-1,3-dione]",53.2,44.6,67.1,,,
"CCOc1ccc(C2C3CCCN3C3(C(=O)c4ccccc4C3=O)C2C(=O)c2nc3ccccc3[nH]2)cc1 (stereo not drawn) [Compound 7, 2-(1H-benzimidazol-2-carbonyl)-1-(4-ethoxyphenyl)-1,2,5,6,7,7a-hexahydrospiroinden-2,3-pyrrolizine-1,3-dione]",7.99,20.5,7.73,,,
"CCOc1ccc(C2C(C(C)CC)NC3(C(=O)c4ccccc4C3=O)C2C(=O)c2nc3ccccc3[nH]2)cc1 (stereo not drawn) [Compound 23, 3-(1H-benzimidazol-2-carbonyl)-5-sec-butyl-4-(4-ethoxyphenyl)spiro[inden-2,2′-pyrrolidine]-1,3-dione]",9.67,8.78,45.8,,,
